Assay results published in patent US8026359B2, “Fungicidal heterocyclic amines” (E.I. du Pont de Nemours and Company, priority 2007, dated 2011).
Marks after values point to notes of the source that are not given here.

Columns and labels:
Format in all cases: in vivo
Alternaria solani = test: Test H: tomato early blight, preventive spray on seedlings; settings: for pest or weed control at 200 ppm: Alternaria solani, 168 h, read-out: Test H disease control rating
Description: General protocol for preparing test suspensions for Tests A-R: The test compounds were first dissolved in acetone in an amount equal to 3% of the final volume and then suspended at the desired concentration (in ppm) in acetone and purified water (50/50 mix) containing 250 ppm of the surfactant Trem® 014 (polyhydric alcohol esters). The resulting test suspensions were then used in tests A-R. In Tests A-M, compounds were sprayed as a 200 ppm test suspension (equivalent to a rate of 500 g/ha) or as a 40 ppm test suspension to the point of runoff on the test plants. In Tests N-R, compounds were sprayed as a 100 g/ha test suspension (equivalent to a rate of 100 ppm) on the test plants at an application volume of 1000 L/ha. The test suspension was sprayed to the point of run-off on wheat seedlings.

Fusarium graminearum = test: whole plant or invertebrate; settings: for pest or weed control at 200 ppm: Fusarium graminearum, in Triticum aestivum, 192 h, read-out: Test E disease control rating
Septoria nodorum = test: Test C: wheat glume blotch, preventive spray on wheat seedlings; settings: 200 ppm, 100 = 100% disease control, 0 = no control relative to controls; for pest or weed control at 200 ppm: Parastagonospora nodorum, 216 h, read-out: Test C disease control rating
Summary of the method: (§1)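 Compounds dissolved in acetone (3% of final volume), then suspended in 50/50 acetone/purified water with 250 ppm Trem® 014 surfactant. Sprayed to run-off on seedlings as a 200 ppm (equivalent to 500 g/ha) or 40 ppm suspension, preventively.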

[1] = system: Puccinia recondita f. sp. tritici; test: Test B: wheat leaf rust, preventive spray on wheat seedlings; settings: 200 ppm, 100 = 100% disease control, 0 = no control relative to controls; for pest or weed control at 200 ppm: Puccinia recondita, 192 h, read-out: Test B disease control rating
Summary of the method: as §1

Botrytis cinerea = test: Test F: tomato Botrytis, preventive spray on tomato seedlings; settings: for pest or weed control at 200 ppm: Botrytis cinerea, 120 h, read-out: Test F disease control rating
Summary of the method: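 Compounds dissolved in acetone (3% of final volume), suspended in 50/50 acetone/water with 250 ppm Trem® 014. Sprayed preventively to run-off on tomato seedlings at 200 ppm (500 g/ha) or 40 ppm.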

Septoria tritici = test: Test D: wheat leaf blotch, preventive spray on wheat seedlings; settings: 200 ppm, 100 = 100% disease control, 0 = no control relative to controls; for pest or weed control at 200 ppm: Zymoseptoria tritici, 504 h, read-out: Test D disease control rating
Summary of the method: as §1

[2] = system: Colletotrichum orbiculare; test: Test I: cucumber Colletotrichum anthracnose, preventive spray on cucumber seedlings; settings: 100 = 100% disease control, 0 = no control relative to controls; for Test I disease control rating: 200 ppm; for pest or weed control at 200 ppm: Colletotrichum orbiculare, 144 h, read-out: Test I disease control rating
Summary of the method: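 Compound was dissolved in acetone (3% of final volume), then suspended in 50/50 acetone/water with 250 ppm Trem 014 surfactant. Cucumber seedlings were sprayed to run-off as a preventive treatment at 200 ppm (equivalent to 500 g/ha) or 40 ppm.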

[3] = system: Erysiphe graminis f. sp. tritici; test: Test A: wheat powdery mildew, preventive spray on wheat seedlings; settings: 200 ppm; 100 = 100% disease control, 0 = no control relative to controls
Summary of the method: as §1

[4] = 200 ppm, 100 = 100% disease control, 0 = no control relative to controls

Compound | Test H disease control rating (Alternaria solani; [4]) [%] | Test E disease control rating (Fusarium graminearum; [4]) [%] | Test C disease control rating (Septoria nodorum) [%] | Test B disease control rating [1] [%] | Test F disease control rating (Botrytis cinerea; [4]) [%] | Test D disease control rating (Septoria tritici) [%] | Test I disease control rating [2] [%] | Test H disease control rating (Alternaria solani; 40 ppm (marked *)) | Test A disease control rating [3] [%] | Test F disease control rating (Botrytis cinerea; 40 ppm (marked *)) | Test E disease control rating (Fusarium graminearum; 40 ppm (marked *)) | pest or weed control at 200 ppm (Alternaria solani; [4]) [%] | pest or weed control at 200 ppm (Fusarium graminearum) [%] | pest or weed control at 200 ppm (Septoria nodorum) [%] | pest or weed control at 200 ppm [1] [%] | pest or weed control at 200 ppm (Botrytis cinerea; [4]) [%] | pest or weed control at 200 ppm (Septoria tritici) [%] | pest or weed control at 200 ppm [2] [%]
CC(=O)OCC(C)Nc1nccc(-c2ncnc(Nc3cccc(F)c3)n2)n1 (centres unmarked) [Compound 8] | 41 | 77 | 95 | 97 | 0 | 42 | 0 | – | – | – | – | – | – | – | – | – | – | –
Fc1cccc(Nc2ncnc(-c3ccnc(NC4CC4)n3)n2)c1 [Compound 9] | 99 | 80 | 99 | 100 | 73 | 20 | 100 | – | – | – | – | – | – | – | – | – | – | –
CC(C)(C)Nc1nccc(-c2ncnc(Nc3cccc(F)c3)n2)n1 [Compound 10] | 97 | 61 | 100 | 93 | 0 | 10 | 99 | – | – | – | – | – | – | – | – | – | – | –
COC[C@H](C)Nc1nccc(-c2ncnc(Nc3ccc(Cl)cc3)n2)n1 [Compound 15] | 90 | 0 | 92 | 32 | 0 | 0 | 93 | – | – | – | – | – | – | – | – | – | – | –
COC[C@H](C)Nc1nccc(-c2ncnc(Nc3ccccc3F)n2)n1 [Compound 17] | 90 | 0 | 99 | 86 | 97 | 66 | 98 | – | – | – | – | – | – | – | – | – | – | –
COC[C@H](C)Nc1nccc(-c2ncnc(Nc3ccc(C)cc3)n2)n1 [Compound 20] | 96 | 91 | 100 | 74 | 99 | 20 | 0 | – | – | – | – | – | – | – | – | – | – | –
COC[C@H](C)Nc1nccc(-c2ncnc(Nc3ccnc(Cl)c3)n2)n1 [Compound 27] | – | 97 | 99 | 100 | 94 | 75 | – | 100* % | 0 | – | – | – | – | – | – | – | – | –
COC[C@H](C)Nc1nccc(-c2ncnc(Nc3cc(Cl)cc(Cl)c3)n2)n1 [Compound 28] | 85 | 90 | 99 | 73 | – | 0 | 96 | – | – | 84* % | – | – | – | – | – | – | – | –
COCC(C)(C)Nc1nccc(-c2ncnc(Nc3cc(F)cc(F)c3)n2)n1 [Compound 30] | – | 91 | 100 | 99 | 96 | 88 | – | 87* % | 67 | – | – | – | – | – | – | – | – | –
COC[C@H](C)Nc1nccc(-c2ncnc(Nc3ccnc(F)c3)n2)n1 [Compound 31] | 92 | 89 | 100 | 100 | 99 | 88 | – | – | 0 | – | – | – | – | – | – | – | – | –
COC(C)(C)Nc1nccc(-c2ncnc(Nc3cc(F)cc(F)c3)n2)n1 [Compound 32] | 99 | 38 | 100 | 99 | 94 | 39 | – | – | 0 | – | – | – | – | – | – | – | – | –
CC(C)(C)Nc1nccc(-c2ncnc(Nc3cc(F)cc(F)c3)n2)n1 [Compound 33] | 94 | – | 99 | 87 | 0 | 22 | – | – | 0 | – | 83* % | – | – | – | – | – | – | –
CSCC(C)Nc1nccc(-c2ccnc(Nc3cccc(F)c3)c2)n1 (centres unmarked) [Compound 94, 4-[2-[(3-fluorophenyl)amino]-4-pyridinyl]-N-[1-methyl-2-(methylthio)ethyl]-2-pyrimidinamine] | – | – | – | – | – | – | – | – | – | – | – | 0 | 0 | 95 | 89 | 72 | 69 | 0
CSCC(C)Nc1nccc(-c2ccnc(Nc3cccc(Cl)c3)c2)n1 (centres unmarked) [Compound 95, 4-[2-[(3-chlorophenyl)amino]-4-pyridinyl]-N-[1-methyl-2-(methylthio)ethyl]-2-pyrimidinamine] | – | – | – | – | – | – | – | – | – | – | – | 0 | 0 | 94 | 88 | 0 | 77 | 0
COC(C)CNc1nccc(-c2ccnc(Nc3cccc(F)c3)c2)n1 (centres unmarked) [Compound 96, 4-[2-[(3-fluorophenyl)amino]-4-pyridinyl]-N-(2-methoxypropyl)-2-pyrimidinamine] | – | – | – | – | – | – | – | – | – | – | – | 0 | 0 | 99 | 85 | 86 | 28 | 0
Clc1ccccc1Nc1cc(-c2ccnc(NC3CCOCC3)n2)ccn1 [Compound 101, 4-[2-[(2-chlorophenyl)amino]-4-pyridinyl]-N-(tetrahydro-2H-pyran-4-yl)-2-pyrimidinamine] | – | – | – | – | – | – | – | – | – | – | – | 92 | 97 | 100 | 99 | 99 | 53 | 97
Cc1ccc(Nc2cc(-c3ccnc(NC4CCOCC4)n3)ccn2)c(Cl)c1 [Compound 102, 4-[2-[(2-chloro-4-methylphenyl)amino]-4-pyridinyl]-N-(tetrahydro-2H-pyran-4-yl)-2-pyrimidinamine] | – | – | – | – | – | – | – | – | – | – | – | 41 | 27 | 100 | 93 | 83 | 3 | 0
Cc1cc(Cl)ccc1Nc1cc(-c2ccnc(NC3CCOCC3)n2)ccn1 [Compound 103, 4-[2-[(4-chloro-2-methylphenyl)amino]-4-pyridinyl]-N-(tetrahydro-2H-pyran-4-yl)-2-pyrimidinamine] | – | – | – | – | – | – | – | – | – | – | – | 99 | 0 | 100 | 97 | 0 | 1 | 0
Cc1cccc(Cl)c1Nc1nccc(-c2ncnc(NC3CCOCC3)n2)n1 [Compound 104, 4-[2-[(2-chloro-6-methylphenyl)amino]-4-pyrimidinyl]-N-(tetrahydro-2H-pyran-4yl)-1,3,5-triazin-2-amine] | – | – | – | – | – | – | – | – | – | – | – | 0 | 0 | 94 | 99 | 0 | 10 | 0
COCC(C)Nc1cc(-c2ccnc(Nc3c(C)cccc3Cl)n2)ncn1 (centres unmarked) [Compound 110, N^2-(2-chloro-6-methylphenyl)-N^6′-(2-methoxy-1-methylethyl) [4,4′-bipyrimidine]-2,6′-diamine] | – | – | – | – | – | – | – | – | – | – | – | 89 | 0 | 60 | 89 | 65 | 9 | 97
